Data reported in ChEMBL document CHEMBL5729022, “Modulators of methyl modifying enzymes, compositions and uses thereof” (2022).
pIC50: −log10 of the molar value.

Assay: Biochemical Assay: EZH2 biochemical assay (IC50): Compound potencies were assessed through incorporation of 3H-SAM into a biotinylated H3 peptide. Specifically, 30 pM PRC2 containing wt EZH2 (pentameric complex prepared in-house) was pre-incubated with 450 nM SAM, 450 nM 3H-SAM, 2 μM H3K27me3 activating peptide (H2N-RKQLATKAAR(Kme3)SAPATGGVKKP-amide) and compounds (as 10 point duplicate dose response titrations in DMSO, final assay 0.8% DMSO (v/v)) for 3-5 h in 50 mM Tris (pH 8.5), 1 mM DTT, 0.07 mM Brij-35, 0.1% BSA, and 0.8% DMSO in a total volume of 12.5 μl. Reaction was initiated with biotinylated H3 substrate peptide (H2N-RKQLATKAAR(Kmel)SAPATGGVKKP-NTPEGBiot) as a 2 μM stock in 12.5 μl of buffer and allowed to react at room temperature for 18-22 h. Quenching was accomplished by addition of 20 μl of STOP solution (50 mM Tris (pH 8.5), 200 mM EDTA, 2 mM SAH). 35 μl of the quenched solution was transferred to streptavidin coated FlashPlates (PerkinElmer), incubated 1-2 h, washed, and read in a TopCount Reader (PerkinElmer). IC50s were calculated in Genedata Screener using non-linear least square four parameter fits, where the four parameters were IC50, Hill slope, pre-transitional baseline (0% INH), and post-transitional baseline (100% INH).

pIC50: < 8.00
SMILES: Cc1cc(Cl)c(CNC(=O)c2cc(Cl)c3c(c2C)OC(C)(C2CCN(CC(F)(F)F)CC2)O3)c(=O)[nH]1 (single isomer, unassigned)
